One series addresses T1, αvβ3 (Homo sapiens, UniProt P05106+P06756).
T1 construct: αvβ3-expressing U87-MG glioblastoma and SK-Mel-2 melanoma cells; host or cells: SK-Mel-2 human melanoma cells
In words: αvβ3-mediated SK-Mel-2 melanoma cell adhesion to fibronectin. It is filed as cell-based. The settings on record: SK-Mel-2 adhesion to fibronectin, mean ± SD. The method, then:
(§1) Cancer cell lines were obtained from ATCC (SK-Mel-2) or ECACC (U87-MG) and cultured in RPMI-1640 culture medium containing 10% foetal bovine serum (FBS), sodium pyruvate (1 mM) and L-glutamine (2 mM). All are human in origin. The αvβ3 adhesion assay was performed as previously described.[22,43]

The test system of series [1] is U87-MG glioblastoma cells. Put plainly: U87-MG 3-D spheroid invasion assay. The format is cell-based. As to conditions: Homo sapiens, U-87 MG, mean ± SD. The procedure:
Selected compounds were further investigated for effects on αvβ3-mediated cell invasion to model a key step in tumour progression and metastasis. U87-MG glioblastoma cells; a well-known αvβ3-expressing cell line model,[35,36] were used in a 3-D spheroid invasion model.[37]
as §1
Spheroids were formed from U87-MG cells (1000 cells per 30 μl hanging drop) according to the method of Nowicki and then embedded in collagen as follows.[37] Collagen I (1400 μL of 3 mg mL^−1) was added to a 1 mL Eppendorf tube on ice, supplemented with 0.2 mL of complete RPMI, and adjusted to pH 7.4 with 1 N NaOH. The collagen mixture was pipetted into each chamber of an 8-chamber cover glass and incubated at 37 °C for 45 minutes. Spheroids from hanging drops were transferred to each chamber of the cover glass, the medium allowed to evaporate, and then a 200 μL layer of collagen gel matrix was added to each chamber and incubated at 37 °C for 45 minutes. 200 μL of RPMI containing test compounds was added to each chamber and incubated at 37 °C, 5% CO2 for 7 days. The spheroids were observed frequently using inverted light microscopy at 10× objective lens, and images were captured and analysed using ImageJ.

Series [2] in a line: Metabolic stability in mouse liver homogenates. It is filed as in vitro ADME. The settings on record: liver homogenate (1:3), 10 μM, 37 °C, read-out: half-life of methyl ester cleavage to free acid. The procedure:
The methyl esters in 1 and 54 were cleaved to the corresponding free acids with half-lives of 5.4 minutes and 3.6 minutes respectively (ESI ^†). This was expected as small esters are frequently used to mask carboxylic acids with rapid ester hydrolysis releasing the active carboxylic acid in biological systems.
Compound metabolism in liver (ex vivo) was studied using (1 : 3) tissue homogenates of mouse liver. Mouse livers, supplied by the Institute of Cancer Therapeutics (ICT), under Home Office license guidelines (see below) were homogenized in phosphate-buffered saline. Liver homogenates were spiked with compound of interest (10 μM final concentration) and incubated at 37 °C. Reaction aliquots were removed over a 120 minute period, proteins precipitated using acetonitrile (1 : 3), and compound and metabolites analyzed by liquid chromatography-mass spectrometry (LC–MS) at the appropriate SIR (single ion recording) channel.
Detection was performed on a Waters Alliance system using a photodiode array detector, and a Waters Micromass ZQ quadrupole electrospray mass spectrometer connected in series. Compound and metabolites were separated on a RPB reversed-phase high-performance liquid chromatography column (HiChrom) using a mobile phase of acetonitrile/water/0.1% formic acid, with a gradient from 20% to 70% acetonitrile over 30 minutes at 1.1 mL min^−1.
Any metabolic intermediates were detected as singularly charged ions and identified by mass spectrometry.

The test system of another series is C57BL/6 mice. Put plainly: In vivo dose tolerability in C57BL/6 mice. Also on record: species or system mouse. The settings on record: intraperitoneal, 4 consecutive days, female C57BL/6 mice. The method, then:
Given compound 54's effectiveness at functional inhibition of αvβ3, its rapid conversion to a stable carboxylic acid, and our preference for developing an aminopyridine-based RGD mimetic over a THN-based one, 54 was therefore selected for in vivo dose tolerability studies in an immunocompetent C57BL/6 mouse model (Fig. 2).
Compound 54 was administered intraperitoneally three dose levels, up to its maximum soluble dose of 300 mg kg^−1 per day, for 4 consecutive days to female C57BL/6 immunocompetent mice, and mice were observed daily, and bodyweight measured frequently. […] Mo = mouse; Cont = solvent control.
Female adult C57BL/6 mice were used (Envigo, Blackthorn, UK). Mice all came from the same delivery and were randomly assigned to cages. They were kept in cages housed in isolation cabinets in an air-conditioned room with regular alternating cycles of light and darkness. They received Teklad 2018 diet (Envigo, Blackthorn, UK) and water ad libitum.
For evaluation of the safety of compound 54in vivo, the compound was dissolved in 15% DMSO/arachis oil, and then administered intraperitoneally as a single dose on four consecutive days, with the first day designated day 0, with 2 mice being treated at each dose level. The control was solvent administered intraperitoneally on the same schedule. […] Mice were observed daily for signs of deleterious effects, and bodyweight measured frequently.

SMILES strings stand for the structures. Entries after “also recorded” stand apart in the source; their conditions may differ.

T1 sequence (P06756 31-889 limits assumed): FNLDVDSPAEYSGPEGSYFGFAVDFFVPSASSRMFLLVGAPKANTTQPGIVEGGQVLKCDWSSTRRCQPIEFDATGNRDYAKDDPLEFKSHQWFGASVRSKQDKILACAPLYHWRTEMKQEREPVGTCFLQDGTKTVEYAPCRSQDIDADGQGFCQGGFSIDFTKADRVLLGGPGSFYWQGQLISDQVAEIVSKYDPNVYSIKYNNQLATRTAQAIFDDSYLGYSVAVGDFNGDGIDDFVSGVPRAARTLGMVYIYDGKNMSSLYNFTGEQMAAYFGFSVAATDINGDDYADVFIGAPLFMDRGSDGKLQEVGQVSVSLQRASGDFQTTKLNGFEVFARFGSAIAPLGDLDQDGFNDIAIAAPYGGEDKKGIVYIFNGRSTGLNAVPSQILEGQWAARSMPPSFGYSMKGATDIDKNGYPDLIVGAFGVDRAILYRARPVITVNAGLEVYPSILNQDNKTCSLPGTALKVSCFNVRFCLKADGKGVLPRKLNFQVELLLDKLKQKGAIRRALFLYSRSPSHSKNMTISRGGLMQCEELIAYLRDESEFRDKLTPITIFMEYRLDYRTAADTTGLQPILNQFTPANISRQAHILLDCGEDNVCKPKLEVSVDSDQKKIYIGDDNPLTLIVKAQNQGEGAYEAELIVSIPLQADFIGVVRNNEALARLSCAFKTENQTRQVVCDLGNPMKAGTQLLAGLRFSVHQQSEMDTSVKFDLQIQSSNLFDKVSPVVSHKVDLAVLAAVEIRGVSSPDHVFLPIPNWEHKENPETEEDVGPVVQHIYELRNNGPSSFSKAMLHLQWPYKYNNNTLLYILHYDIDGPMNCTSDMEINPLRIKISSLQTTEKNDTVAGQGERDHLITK
T1 sequence (P06756 891-1048 partner limits assumed): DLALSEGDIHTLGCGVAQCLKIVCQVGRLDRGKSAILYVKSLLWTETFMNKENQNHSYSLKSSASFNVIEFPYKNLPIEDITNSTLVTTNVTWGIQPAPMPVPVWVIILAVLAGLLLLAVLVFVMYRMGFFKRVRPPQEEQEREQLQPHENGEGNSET
T1 sequence (P05106 27-788): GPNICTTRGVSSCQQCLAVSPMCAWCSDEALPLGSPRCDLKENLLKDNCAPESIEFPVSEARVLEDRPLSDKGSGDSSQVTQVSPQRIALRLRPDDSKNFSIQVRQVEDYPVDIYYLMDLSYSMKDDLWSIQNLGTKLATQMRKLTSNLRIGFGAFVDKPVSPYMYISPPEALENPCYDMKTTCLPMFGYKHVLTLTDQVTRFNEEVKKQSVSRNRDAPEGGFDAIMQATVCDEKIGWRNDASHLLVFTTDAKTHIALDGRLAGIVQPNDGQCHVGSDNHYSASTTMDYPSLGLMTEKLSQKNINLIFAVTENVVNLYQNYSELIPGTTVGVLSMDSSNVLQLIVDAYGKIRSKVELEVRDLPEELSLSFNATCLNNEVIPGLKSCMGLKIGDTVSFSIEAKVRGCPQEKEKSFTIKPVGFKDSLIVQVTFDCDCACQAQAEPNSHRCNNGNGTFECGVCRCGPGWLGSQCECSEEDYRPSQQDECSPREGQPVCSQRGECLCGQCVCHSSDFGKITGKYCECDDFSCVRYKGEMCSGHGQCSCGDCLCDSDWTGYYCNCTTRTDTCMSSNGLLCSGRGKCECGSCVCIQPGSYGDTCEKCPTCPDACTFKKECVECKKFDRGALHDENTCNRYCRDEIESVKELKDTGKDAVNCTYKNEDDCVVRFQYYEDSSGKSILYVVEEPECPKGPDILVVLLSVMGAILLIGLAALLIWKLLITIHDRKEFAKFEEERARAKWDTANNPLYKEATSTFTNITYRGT

With `CNc1cccc(CC[C@H]2C[C@@H](C(=O)NC[C@H](NS(=O)(=O)c3c(C)cc(C)cc3C)C(=O)OC)C2)n1` [Compound 54], the IC50 (commonly the concentration that gives 50% inhibition) on αvβ3 came to 600 ± 700 nM. In addition, the inhibition (commonly the share of the control response that was lost under treatment) at 5 µM on αvβ3 (read-out: Adhesion % inhibition @5 μM, 5 μM) was 84.9 ± 11.2%. Also, in series [1], the inhibition at 10 µM was 48.6 ± 1%. For the same molecule, the half-life – broadly, how long it takes for the measured level to halve – at 10 μM in series [2] came out at 3.6 min. Also, in the series with C57BL/6 mice (three dose levels up to 300 mg kg^−1 per day), the “toxicity / deleterious effects” value is reported as “No deleterious effects were observed; also recorded: non-toxic”. In addition, in the series with C57BL/6 mice (up to 300 mg kg^−1 per day), the bodyweight result is given as “remained within normal levels”.

The values are drawn from article PMC11393731, “Sidechain structure–activity relationships of cyclobutane-based small molecule αvβ3 antagonists” (RSC Medicinal Chemistry, 2024).
